Reference: ChEMBL document CHEMBL2007661, “Compounds: GSK PKIS; Assays: UNC Frye lab” (2012)
“And” between values parts separate entries of the source, which are not always exact repeats. Equal values may be shown once.

Key:
[1] = biological target: T1, Inhibitor of nuclear factor kappa-B kinase subunit beta (Homo sapiens) (UniProt O14920); settings: at 1 µM
T1 sequence (whole entry): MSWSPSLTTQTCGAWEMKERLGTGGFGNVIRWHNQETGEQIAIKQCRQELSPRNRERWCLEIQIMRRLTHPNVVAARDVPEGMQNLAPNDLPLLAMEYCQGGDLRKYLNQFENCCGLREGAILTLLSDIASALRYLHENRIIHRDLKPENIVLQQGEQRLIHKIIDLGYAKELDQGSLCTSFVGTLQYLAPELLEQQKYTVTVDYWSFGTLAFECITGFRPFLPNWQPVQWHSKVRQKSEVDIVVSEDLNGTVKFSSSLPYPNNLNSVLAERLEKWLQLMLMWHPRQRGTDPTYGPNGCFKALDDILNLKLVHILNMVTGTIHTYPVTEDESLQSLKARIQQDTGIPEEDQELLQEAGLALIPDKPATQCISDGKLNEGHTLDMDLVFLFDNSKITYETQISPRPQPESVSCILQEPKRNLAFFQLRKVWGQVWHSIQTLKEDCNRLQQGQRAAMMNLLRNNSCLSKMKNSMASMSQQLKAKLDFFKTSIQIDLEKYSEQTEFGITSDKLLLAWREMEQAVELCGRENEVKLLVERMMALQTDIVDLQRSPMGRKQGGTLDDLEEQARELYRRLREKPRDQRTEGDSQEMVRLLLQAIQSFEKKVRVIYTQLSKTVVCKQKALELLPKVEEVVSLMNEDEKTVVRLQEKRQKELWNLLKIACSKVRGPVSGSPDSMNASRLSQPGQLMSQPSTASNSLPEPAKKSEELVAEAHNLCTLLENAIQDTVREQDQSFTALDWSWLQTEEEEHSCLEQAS

[2] = biological target: T2, Serine/threonine-protein kinase TBK1 (Homo sapiens) (UniProt Q9UHD2); settings: at 1 µM
T2 sequence (whole entry): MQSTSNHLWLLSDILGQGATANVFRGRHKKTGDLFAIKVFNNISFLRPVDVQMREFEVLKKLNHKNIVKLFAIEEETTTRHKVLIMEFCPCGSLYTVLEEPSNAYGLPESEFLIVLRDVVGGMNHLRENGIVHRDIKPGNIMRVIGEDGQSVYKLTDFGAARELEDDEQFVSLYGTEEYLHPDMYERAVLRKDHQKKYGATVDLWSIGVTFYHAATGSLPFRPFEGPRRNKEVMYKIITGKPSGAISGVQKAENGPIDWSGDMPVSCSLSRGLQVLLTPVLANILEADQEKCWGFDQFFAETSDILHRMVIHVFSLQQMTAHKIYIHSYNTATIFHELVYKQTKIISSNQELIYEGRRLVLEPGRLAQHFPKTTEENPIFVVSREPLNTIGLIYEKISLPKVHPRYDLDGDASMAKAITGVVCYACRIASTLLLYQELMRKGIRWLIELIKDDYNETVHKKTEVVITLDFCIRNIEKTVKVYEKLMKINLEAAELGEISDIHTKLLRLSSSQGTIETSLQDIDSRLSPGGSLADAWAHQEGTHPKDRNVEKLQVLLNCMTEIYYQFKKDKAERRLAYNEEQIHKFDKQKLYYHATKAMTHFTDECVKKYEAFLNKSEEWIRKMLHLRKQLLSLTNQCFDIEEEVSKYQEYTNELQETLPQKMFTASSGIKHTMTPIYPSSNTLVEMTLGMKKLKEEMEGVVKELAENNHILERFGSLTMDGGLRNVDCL

`CCc1nn2ncccc2c1-c1ccnc(NC2CC2)n1` was tested, and the inhibition [1] was -3% and -4% and the inhibition [2] was 0% and -2%.

`COc1ccc2ncnc(Nc3ccc(OCc4ccccc4)cc3)c2c1` was tested, and the inhibition [1] was -1% and 4% and the inhibition [2] was 1% and -2%.

For `Cc1cc(O)cc(C)c1/C=C/c1cncc(-c2nn[nH]n2)c1`, the inhibition [1] was -4% and -5% and the inhibition [2] was 3%.

With `Cc1cc(O)cc(C)c1/C=C/c1cncc(C(N)=O)c1` the inhibition [1] was -5% and -4% and the inhibition [2] was -3% and -6%.

For `CCNC(=O)O[C@H]1CN[C@H](C#Cc2cc3ncnc(Nc4ccc(OCc5cccc(F)c5)c(Cl)c4)c3s2)C1`, the inhibition [1] was -5% and -3% and the inhibition [2] was 0% and 3%.

With `O=C1Nc2ccccc2/C1=C1\CCc2cc(O)ccc21` the inhibition [1] was -3% and -4% and the inhibition [2] was 25% and 30%.

`NS(=O)(=O)c1cccc(N/C=C2\C(=O)Nc3ccccc32)c1` was tested, and the inhibition [1] was -4% and -1% and the inhibition [2] was 31% and 38%.

`COc1ccc2cc(-c3c(-c4ccncc4)nc(-c4ccc(S(C)(=O)=O)cc4C)n3C)ccc2c1` was tested, and the inhibition [1] was -2% and the inhibition [2] was -4% and -1%.

`CS(=O)(=O)CCNCc1cc(-c2cc3c(Nc4ccc(OCc5cccc(F)c5)c(Cl)c4)ncnc3s2)cs1` was tested, and the inhibition [1] was -8% and 5% and the inhibition [2] was 0%.

With `CNC(=O)Oc1cc(C)c(/C=C/c2cncc(C(=O)NC)c2)c(C)c1` the inhibition [1] was 1% and -3% and the inhibition [2] was -1%.

`NS(=O)(=O)c1ccc(NC=C2C(=O)Nc3ccc4ncsc4c32)cc1` was tested, and the inhibition [1] was -3% and -2% and the inhibition [2] was 89% and 88%.

With `C/C(Nc1ccc(S(N)(=O)=O)cc1)=C1/C(=O)Nc2ccccc21` the inhibition [1] was -3% and -2% and the inhibition [2] was 11% and 14%.

With `COc1cc2ncn(-c3cc(OCc4cccs4)c(C(N)=O)s3)c2cc1OC` the inhibition [1] was -5% and -6% and the inhibition [2] was 35% and 33%.

`CC1=C(C(=O)Nc2ccc3[nH]ncc3c2)C(c2ccc(F)cc2)NC(=O)N1` (stereo unspecified) was tested, and the inhibition [1] was 4% and -2% and the inhibition [2] was -2% and 0%.

For `COc1ccc(CNC(=O)c2ccc(-c3cc(-c4nnc(C)o4)ccc3C)cc2)cc1`, the inhibition [1] was -2% and -3% and the inhibition [2] was -6% and -5%.

Work on `CN1CCN(CCCNc2nc3ccc(Oc4ccc(NC(=O)Nc5cc(C(F)(F)F)ccc5F)cc4)cc3[nH]2)CC1` yielded an inhibition [1] of -5% and an inhibition [2] of 0%.

`Fc1ccc(-c2ncn(C3CCNCC3)c2-c2ccnc(Oc3ccc(F)c(F)c3)n2)cc1` was tested, and the inhibition [1] was -3% and the inhibition [2] was 2% and 0%.

For `CN(C)CCOc1ccc(-c2cc(-c3ccc4c(c3)CCC4=NO)c(-c3ccncc3)o2)cc1`, the inhibition [1] was -1% and -3% and the inhibition [2] was 5% and 6%.
